Results: ChEMBL document CHEMBL2029345, “BC-spiro-estradiols. Synthesis and estrogen receptor binding affinity of four new estradiol isomers” (Bioorg Med Chem Lett, 2012)

Columns and labels:
[1] = target: Estrogen receptor beta (Homo sapiens) (UniProt Q92731); experiment: Displacement of [3H]estradiol from human full length estrogen receptor beta by competitive radiometric assay relative to estradiol
[2] = target: T1, Estrogen receptor (Homo sapiens) (UniProt P03372); experiment: Displacement of [3H]estradiol from human full length estrogen receptor alpha by competitive radiometric assay relative to estradiol
T1 sequence (whole entry): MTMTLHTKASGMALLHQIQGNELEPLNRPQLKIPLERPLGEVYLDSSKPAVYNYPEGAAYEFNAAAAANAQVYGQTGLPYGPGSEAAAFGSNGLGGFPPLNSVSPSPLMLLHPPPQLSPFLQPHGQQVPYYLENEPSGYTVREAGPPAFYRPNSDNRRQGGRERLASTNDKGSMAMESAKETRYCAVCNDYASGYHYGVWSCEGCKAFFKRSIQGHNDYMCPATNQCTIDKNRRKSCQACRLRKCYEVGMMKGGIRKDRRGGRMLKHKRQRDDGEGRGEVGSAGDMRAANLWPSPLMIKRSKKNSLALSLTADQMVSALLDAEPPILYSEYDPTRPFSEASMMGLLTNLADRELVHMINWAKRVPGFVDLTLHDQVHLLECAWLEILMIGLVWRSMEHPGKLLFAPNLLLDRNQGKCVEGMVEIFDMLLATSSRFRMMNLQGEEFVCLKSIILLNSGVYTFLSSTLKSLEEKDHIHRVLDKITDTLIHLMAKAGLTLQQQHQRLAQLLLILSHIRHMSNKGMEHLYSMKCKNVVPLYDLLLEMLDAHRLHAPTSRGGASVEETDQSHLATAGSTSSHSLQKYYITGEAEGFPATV

Estrogen receptor beta (Homo sapiens), sequence (Q92731 whole entry): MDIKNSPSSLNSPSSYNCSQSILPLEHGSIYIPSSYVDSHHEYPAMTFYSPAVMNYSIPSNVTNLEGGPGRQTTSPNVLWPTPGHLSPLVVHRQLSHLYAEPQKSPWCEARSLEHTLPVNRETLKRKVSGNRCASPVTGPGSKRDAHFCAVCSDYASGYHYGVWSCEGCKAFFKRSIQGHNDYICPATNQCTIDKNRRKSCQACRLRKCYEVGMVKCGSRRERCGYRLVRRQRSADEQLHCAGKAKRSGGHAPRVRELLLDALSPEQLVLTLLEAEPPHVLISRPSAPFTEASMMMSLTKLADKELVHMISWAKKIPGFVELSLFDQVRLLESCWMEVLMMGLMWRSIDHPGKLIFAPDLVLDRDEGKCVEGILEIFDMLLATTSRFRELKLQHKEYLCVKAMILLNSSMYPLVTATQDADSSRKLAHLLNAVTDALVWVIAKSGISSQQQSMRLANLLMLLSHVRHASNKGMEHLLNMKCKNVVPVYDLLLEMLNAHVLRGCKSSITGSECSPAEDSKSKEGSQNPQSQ

Row | Structure (SMILES) | relative binding affinity (RBA) [1] | relative binding affinity (RBA) [2]
1 | C[C@]12CC[C@]3(C[C@H]1CC[C@@H]2O)OCc1cc(O)ccc13 | 9.05 | 2.46
2 | C[C@]12CC[C@]3(C[C@H]1CC[C@@H]2O)OCCc1cc(O)ccc13 | 3.47 | 0.31
3 | C[C@]12CC[C@@]3(C[C@H]1CC[C@H]2O)OCc1cc(O)ccc13 | 0.02 | 0.014
4 | C[C@]12CC[C@]3(C[C@H]1CC[C@@H]2O)OC(=O)c1cc(O)ccc13 | 6.07 | 1.98
5 | C[C@]12CC[C@H](c3ccc(O)cc3)C[C@@H]1CC[C@@H]2O | 9.97 | 2.38
6 | C[C@]12CC[C@@H](c3ccc(O)cc3)C[C@H]1CC[C@H]2O | 0.59 | 0.061
7 | C[C@]12CC[C@@]3(CCc4cc(O)ccc43)C[C@@H]1CC[C@@H]2O | 2.43 | 0.98
8 | C[C@]12CC[C@@]3(CCc4cc(O)ccc43)C[C@H]1CC[C@@H]2O | 40.5 | 6.4
9 | C[C@]12CC[C@]3(CCc4cc(O)ccc43)C[C@H]1CC[C@H]2O | 0.37 | 0.34
10 | C[C@]12CC[C@]3(CCc4cc(O)ccc43)C[C@@H]1CC[C@@H]2O | 0.23 | 0.12
11 | C[C@]12CC[C@]3(CCCc4cc(O)ccc43)C[C@H]1CC[C@H]2O | 0.16 | 0.05
12 | C[C@]12CC[C@@]3(CCCc4cc(O)ccc43)C[C@H]1CC[C@@H]2O | 39.7 | 3.7
